Key:
[1] = Multiple-dose pharmacokinetic study of legubicin, weekly i.v. for 4 weeks; conditions: free metabolite in plasma, weekly i.v. legubicin 5 mg/kg; for Tmax: median [min, max]; for AUClast / Cmax: n = 3
Procedure: (§1) The mixture was vortexed for 3 min, and then centrifuged at 22,000× g at 4 °C for 10 min. A final analysis was conducted by injecting 5 µL supernatant into a UHPLC-MS/MS system. Mouse plasma samples were treated in the same way as the rat plasma samples, except for protein precipitation, with 200 µL of 5 pmol/mL IS working solution and injection of 2 µL of supernatant for analysis.
(1) For the hydrolysis process, an aliquot of 25 µL of rat/mouse plasma was transferred into an Eppendorf tube, and then 50 µL of enzyme digestion buffer and 25 µL of legumain enzyme were placed into the tube. The mixture was vortexed for 1 min, and then incubated in a water bath for 24 h at 37 °C for enzymatic hydrolysis. (2) For the protein precipitation process, 1000 µL of IS working solution (5 pmol/mL and 50 pmol/mL for rat and mouse plasmas, respectively) was added to the enzymatic-hydrolysis solution. Then, the sample was vortexed for 3 min and centrifuged at 22,000× g for 10 min at 4 °C. Analyses were performed on the 3 µL aliquot of the solution used in the UHPLC-MS/MS system.
Twenty-four rats, inclusive of both sexes, were randomly distributed into four groups. Groups 1, 2, and 3 were single-dose groups, among which the subjects received legubicin via tail intravenous injection (a dose of 1.5, 5, or 15 mg/kg; i.e., 1.36, 4.52, or 13.6 µmol/kg). The fourth group was utilized for a multi-dose study at 5 mg/kg (once-weekly for 4 consecutive weeks). Blood samples of approximately 150 µL were taken from the jugular vein at 0 h (pre-dosing) and at 0.167 h (10 min), 0.5 h, 1 h, 2 h, 4 h, 8 h, 24 h, 48 h, and 72 h post-dosing in the single-dose groups. Samples were also obtained on days 1 and 22 for the multiple-dose group in the same way as for the single-dose groups. However, on days 8 and 15, samples were taken only before and 10 min after administration. The K2EDTA quantities containing blood samples were centrifuged (4 °C, 4000 rpm, 10 min) to collect plasma samples, which were separated into EP tubes and kept at −80 °C until further assay.
(§2) The analysis software (Version 1.5.2, AB Sciex, Vaughan, ON, Canada) was applied to data acquisition and quantification. Pharmacokinetic parameters were calculated with WinNonlin Phoenix (v6.4, Pharsight, Mountain View, CA, USA) with the noncompartmental method, and were presented as mean ± SD (%CV). The “Best fit” strategy in the WinNonlin Phoenix was used for the calculation of elimination half-life and the selection of the elimination phase. Graphs were plotted by GraphPad Software (GraphPad Prism 8.0.2; GraphPad Software, Inc., La Jolla, CA, USA).

[2] = Tissue-distribution study after i.v. legubicin or doxorubicin; conditions: HT1080 tumor-bearing mice
Procedure: as §1
Each legubicin administration group corresponded to a sampling time-point (4, 16, 32, 48, 96, 168, and 240 h after administration). […] Blood samples and tumor, heart, and kidney tissues were collected at the sampling time points (4, 16, 32, 48, 96, 168, and 240 h after dosing). In addition, liver, spleen, lung, stomach, small intestine, gonads, brain, skeletal muscle, and skin were also collected at 4, 32, 96, and 240 h post-dose time points in the legubicin administration group. All whole-blood samples were processed according to the same processing steps, described above, for rat whole-blood samples.
as §2

[3] = Storage stability of analytes in rat plasma (method validation); conditions: for Auto-Sampler Stability at 2–8 °C (72 h), Bias / Auto-Sampler Stability at 2–8 °C (72 h), Measured Concentration: processed rat plasma; for Auto-Sampler Stability at 2–8 °C (72 h), Bias / Short-Term Stability at Room Temperature (4 h), Bias / Freeze and Thaw Stability at −80 °C/Room Temperature (3 Cycles), Bias / Long-Term Stability at −80 °C (70 days), Bias: n = 6; for Auto-Sampler Stability at 2–8 °C (72 h), Measured Concentration / Freeze and Thaw Stability at −80 °C/Room Temperature (3 Cycles), Measured Concentration / Long-Term Stability at −80 °C (70 days), Measured Concentration / Short-Term Stability at Room Temperature (4 h), Measured Concentration: n = 6, mean ± SD; for Short-Term Stability at Room Temperature (4 h), Bias / Freeze and Thaw Stability at −80 °C/Room Temperature (3 Cycles), Bias / Long-Term Stability at −80 °C (70 days), Bias / Freeze and Thaw Stability at −80 °C/Room Temperature (3 Cycles), Measured Concentration / Long-Term Stability at −80 °C (70 days), Measured Concentration / Short-Term Stability at Room Temperature (4 h), Measured Concentration: rat plasma; for Short-Term Stability at Room Temperature (4 h), Bias: bias from nominal
Procedure: (§3) By investigating low- and high-concentration stability QCs in six replicates at different storage conditions, autosampler, short-term (bench-top), freeze and thaw, and long-term stability evaluations were conducted.

[4] = Storage stability of analytes in mouse plasma (method validation); conditions: for Freeze and thaw stability at -80 °C/ room temperature, Bias / Freeze and thaw stability at -80 °C/ room temperature, Measured concentration / Long term stability at -80 °C (30 days), Bias / Short term stability at room temperature (6 h), Bias / Long term stability at -80 °C (30 days), Measured concentration / Short term stability at room temperature (6 h), Measured concentration: mouse plasma; for Freeze and thaw stability at -80 °C/ room temperature, Bias / Freeze and thaw stability at -80 °C/ room temperature, Measured concentration: 1 cycle; for Freeze and thaw stability at -80 °C/ room temperature, Bias / Long term stability at -80 °C (30 days), Bias / Short term stability at room temperature (6 h), Bias / Auto-sampler stability at 2-8 °C, Bias: n = 6; for Freeze and thaw stability at -80 °C/ room temperature, Measured concentration / Long term stability at -80 °C (30 days), Measured concentration / Short term stability at room temperature (6 h), Measured concentration / Auto-sampler stability at 2-8 °C, Measured concentration: n = 6, mean ± SD; for Auto-sampler stability at 2-8 °C, Bias / Auto-sampler stability at 2-8 °C, Measured concentration: processed mouse plasma, 12 h
Procedure: as §3

[5] = Storage stability of analytes in mouse tumor homogenate (method validation)
Procedure: (§4) Tumor-bearing mouse tumor/individual tissue samples were homogenized by adding PBS at a ratio of 1:5 (e.g., 1 g of tumor sample to 5 mL of PBS) to make a tumor/tissue homogenate. A quantity of 60 µL of homogenate was taken as a tumor/tissue sample and processed in the same manner as the mouse plasma sample, with the exception of 240 µL of IS working solution used for protein precipitation.
as §3

[6] = Storage stability of analytes in mouse liver homogenate (method validation)
Procedure: as §4, §3

[7] = female SD rats, multiple dose (day 22)
[8] = female SD rats, single dose (day 1)
[9] = male SD rats, multiple dose (day 22)
[10] = male SD rats, single dose (day 1)
[11] = i.v. 9.05 µmol/kg of the labelled drug, n = 6, UHPLC-MS/MS
[12] = high QC (Leu-DOX 4000, DOX 1200 pmol/mL, conjugate 80 nmol/mL)
[13] = high QC (nominal Leu-DOX 4000, DOX 1200 pmol/mL)
[14] = low QC (Leu-DOX 10, DOX 3 pmol/mL, conjugate 0.2 nmol/mL)
[15] = low QC (nominal Leu-DOX 10, DOX 3 pmol/mL)
[16] = high QC (Leu-DOX 2400, DOX 800 pmol/mL)
[17] = high QC (nominal Leu-DOX 2400, DOX 800 pmol/mL)
[18] = low QC (Leu-DOX 9, DOX 3 pmol/mL)
[19] = low QC (nominal Leu-DOX 9, DOX 3 pmol/mL)
[20] = high QC (Leu-DOX 2400, DOX 800 pmol/mL, conjugate 80 nmol/mL)
[21] = low QC (Leu-DOX 9, DOX 3 pmol/mL, conjugate 0.2 nmol/mL)

SMILES: COc1cccc2c1C(=O)c1c(O)c3c(c(O)c1C2=O)C[C@@](O)(C(=O)CO)C[C@@H]3O[C@H]1C[C@H](N)[C@H](O)[C@H](C)O1 [DOX, Doxorubicin]
- Tmax [1, 7]: 0.167 [0.167, 0.167] h
- AUClast [1, 7]: 0.174 ± 0.0367 µM·h
- Cmax [1, 7]: 4.70 ± 0.534 nM
- Tmax [1, 8]: 0.167 [0.167, 0.167] h
- AUClast [1, 8]: 0.0945 ± 0.0447 µM·h
- Cmax [1, 8]: 3.10 ± 0.367 nM
- Tmax [1, 9]: 0.167 [0.167, 0.167] h
- AUClast [1, 9]: 0.207 ± 0.0112 µM·h
- Cmax [1, 9]: 8.58 ± 0.616 nM
- Tmax [1, 10]: 0.167 [0.167, 0.167] h
- AUClast [1, 10]: 0.123 ± 0.0441 µM·h
- Cmax [1, 10]: 6.01 ± 0.430 nM
- AUClast of doxorubicin in heart [2, 11]: 29.0 nmol·h/g
- AUClast of doxorubicin in kidney [2, 11]: 83.5 nmol·h/g
- AUClast of doxorubicin in plasma [2, 11]: 1.07 nmol·h/g
- AUClast of doxorubicin in tumor [2, 11]: 63.1 nmol·h/g
- order of exposure (Dox distribution) ([2]; after i.v. doxorubicin 9.05 µmol/kg, n = 6): kidney > tumor > heart > plasma
- time of maximum concentration (Cmax) in all tissues ([2]; after i.v. doxorubicin 9.05 µmol/kg, initial sampling point): 4 h
- brain penetration of the metabolite ([2]; after i.v. legubicin 9.05 µmol/kg): neither the metabolite doxorubicin nor free Leu-Dox permeated the brain
- tissue concentration rank order of the metabolite ([2]; after i.v. legubicin 9.05 µmol/kg, n = 6): liver having the highest levels, followed by the tumor, skin, lung, gonads, spleen, kidney, stomach, small intestine, skeletal muscle, heart, and plasma
- Auto-Sampler Stability at 2–8 °C (72 h), Bias [3, 12]: 1.0%
- Auto-Sampler Stability at 2–8 °C (72 h), Measured Concentration [3, 13]: 1211.67 ± 104.58 nM
- Auto-Sampler Stability at 2–8 °C (72 h), Bias [3, 14]: 4.4%
- Auto-Sampler Stability at 2–8 °C (72 h), Measured Concentration [3, 15]: 3.13 ± 0.25 nM
- Short-Term Stability at Room Temperature (4 h), Bias [3, 12]: 3.2%
- Freeze and Thaw Stability at −80 °C/Room Temperature (3 Cycles), Bias [3, 12]: 1.8%
- Long-Term Stability at −80 °C (70 days), Bias [3, 12]: −0.8%
- Freeze and Thaw Stability at −80 °C/Room Temperature (3 Cycles), Measured Concentration [3, 13]: 1221.67 ± 97.45 pmol/mL
- Long-Term Stability at −80 °C (70 days), Measured Concentration [3, 13]: 1190.00 ± 40.50 pmol/mL
- Short-Term Stability at Room Temperature (4 h), Measured Concentration [3, 13]: 1238.33 ± 100.48 pmol/mL
- Short-Term Stability at Room Temperature (4 h), Bias [3, 14]: 1.2%
- Freeze and Thaw Stability at −80 °C/Room Temperature (3 Cycles), Bias [3, 14]: 0.4%
- Long-Term Stability at −80 °C (70 days), Bias [3, 14]: −0.6%
- Freeze and Thaw Stability at −80 °C/Room Temperature (3 Cycles), Measured Concentration [3, 15]: 3.01 ± 0.15 pmol/mL
- Long-Term Stability at −80 °C (70 days), Measured Concentration [3, 15]: 2.98 ± 0.29 pmol/mL
- Short-Term Stability at Room Temperature (4 h), Measured Concentration ([3]; low QC (nominal Leu-DOX 10, DOX 3 pmol/mL), UHPLC-MS/MS): 3.04 ± 0.18 pmol/mL
- Freeze and thaw stability at -80 °C/ room temperature, Bias [4, 16]: -7.0%
- Freeze and thaw stability at -80 °C/ room temperature, Measured concentration [4, 17]: 744.33 ± 11.66 pmol/mL
- Freeze and thaw stability at -80 °C/ room temperature, Bias [4, 18]: -8.6%
- Freeze and thaw stability at -80 °C/ room temperature, Measured concentration [4, 19]: 2.74 ± 0.07 pmol/mL
- Long term stability at -80 °C (30 days), Bias [4, 20]: 4.8%
- Short term stability at room temperature (6 h), Bias [4, 20]: -9.3%
- Long term stability at -80 °C (30 days), Measured concentration [4, 17]: 838.33 ± 13.81 pmol/mL
- Short term stability at room temperature (6 h), Measured concentration [4, 17]: 728.83 ± 15.41 pmol/mL
- Long term stability at -80 °C (30 days), Bias [4, 21]: -1.1%
- Short term stability at room temperature (6 h), Bias [4, 21]: -9.4%
- Long term stability at -80 °C (30 days), Measured concentration [4, 19]: 2.97 ± 0.23 pmol/mL
- Short term stability at room temperature (6 h), Measured concentration [4, 19]: 2.72 ± 0.17 pmol/mL
- Auto-sampler stability at 2-8 °C, Bias [4, 16]: -8.2%
- Auto-sampler stability at 2-8 °C, Measured concentration [4, 17]: 734.00 ± 10.90 pmol/mL
- Auto-sampler stability at 2-8 °C, Bias [4, 18]: -7.9%
- Auto-sampler stability at 2-8 °C, Measured concentration [4, 19]: 2.76 ± 0.16 pmol/mL
- Freeze and thaw stability at -80 °C/ room temperature, Bias ([5]; mouse tumor homogenate, 3 cycles, low QC (Leu-DOX 27, DOX 9 pmol/mL), n = 6): -1.2%
- Freeze and thaw stability at -80 °C/ room temperature, Measured concentration ([5]; mouse tumor homogenate, 3 cycles, low QC (nominal Leu-DOX 27, DOX 9 pmol/mL), n = 6, mean ± SD): 8.89 ± 0.66 pmol/mL
- Short term stability at room temperature (6 h), Bias ([5]; mouse tumor homogenate, low QC (Leu-DOX 27, DOX 9 pmol/mL), n = 6): 5.7%
- Short term stability at room temperature (6 h), Measured concentration ([5]; mouse tumor homogenate, low QC (nominal Leu-DOX 27, DOX 9 pmol/mL), n = 6, mean ± SD): 9.51 ± 0.67 pmol/mL
- Auto-sampler stability at 2-8 °C, Bias ([5]; processed mouse tumor homogenate, 48h, low QC (Leu-DOX 27, DOX 9 pmol/mL), n = 6): -5.1%
- Auto-sampler stability at 2-8 °C, Measured concentration ([5]; processed mouse tumor homogenate, 48h, low QC (nominal Leu-DOX 27, DOX 9 pmol/mL), n = 6, mean ± SD): 8.54 ± 0.89 pmol/mL
- Freeze and thaw stability at -80 °C/ room temperature, Measured concentration ([6]; mouse liver homogenate, 3 cycles, low QC (nominal Leu-DOX 27, DOX 10 pmol/mL), n = 6, mean ± SD): 11.04 ± 0.68 pmol/mL
- Short term stability at room temperature (6 h), Bias ([6]; mouse liver homogenate, low QC (Leu-DOX 27, DOX 10 pmol/mL), n = 6): 0.8%
- Short term stability at room temperature (6 h), Measured concentration ([6]; mouse liver homogenate, low QC (nominal Leu-DOX 27, DOX 10 pmol/mL), n = 6, mean ± SD): 10.08 ± 0.52 pmol/mL
- Auto-sampler stability at 2-8 °C, Measured concentration ([6]; processed mouse liver homogenate, 48h, low QC (nominal Leu-DOX 27, DOX 10 pmol/mL), n = 6, mean ± SD): 11.06 ± 0.81 pmol/mL

Reference: article PMC10892419, “UHPLC-MS/MS Assay for Quantification of Legubicin, a Novel Doxorubicin-Based Legumain-Activated Prodrug, and Its Application to Pharmacokinetic and Tissue Distribution Studies” (Molecules, 2024)
